Measured values taken from patent US11339161B2, “Triazolo pyridines as modulators of gamma-secretase” (Boehringer Ingelheim International GmbH, priority 2017, dated 2022).
Like-named read-outs stand apart in the source and are kept apart here.

Assays:
CSF1R (FMS) = CSF1R (FMS) (Homo sapiens, UniProt P07333); assay: Z'-LYTE SelectScreen biochemical kinase assay CSF1R (FMS)
From the text: (§1) Thermo Fisher Scientific SelectScreen™ Biochemical Kinase Profiling Service Z′-LYTE™ Screening Protocol and Assay Conditions Assay Theory
(§2) The […] biochemical assay employs a fluorescence-based, coupled-enzyme format and is based on the differential sensitivity of phosphorylated and non-phosphorylated peptides to proteolytic cleavage. The peptide substrate is labeled with two fluorophores—one at each end—that make up a FRET pair. In the primary reaction, the kinase transfers the gamma-phosphate of ATP to a single tyrosine, serine or threonine residue in a synthetic FRET-peptide. In the secondary reaction, a site-specific protease recognizes and cleaves non-phosphorylated FRET-peptides. Phosphorylation of FRET-peptides suppresses cleavage by the Development Reagent. Cleavage disrupts FRET between the donor (i.e., coumarin) and acceptor (i.e., fluorescein) fluorophores on the FRET-peptide, whereas uncleaved, phosphorylated FRET-peptides maintain FRET. A ratiometric method, which calculates the ratio (Emission Ratio=Coumarin emission (445 nm)/Fluorescein emission (520 nm)) of donor emission to acceptor emission after excitation of the donor fluorophore at 400 nm, is used to quantitate reaction progress, as shown in the equation below. A significant benefit of this ratiometric method for quantitating reaction progress is the elimination of well-to-well variations in FRET-peptide concentration and signal intensities. As a result, the assay yields very high Z′-factor values (>0.7) at a low percent phosphorylation. Both cleaved and uncleaved FRET-peptides contribute to the fluorescence signals and therefore to the Emission Ratio. The extent of phosphorylation of the FRET-peptide can be calculated from the Emission Ratio. The Emission Ratio will remain low if the FRET-peptide is phosphorylated (i.e., no kinase inhibition) and will be high if the FRET-peptide is non-phosphorylated (i.e., kinase inhibition).
(§3) The Test Compounds are screened in 1% DMSO (final) in the well. For 10 point titrations, 3-fold serial dilutions are conducted from the starting concentration of the customer's choosing.
(§4) All Peptide/Kinase Mixtures are diluted to a 2× working concentration in the appropriate Kinase Buffer (see section Kinase Specific Assay Conditions for a complete description).
(§5) All ATP Solutions are diluted to a 4× working concentration in Kinase Buffer (50 mM HEPES pH 7.5, 0.01% BRIJ-35, 10 mM MgCl2, 1 mM EGTA). ATP Km apparent is previously determined using a Z″-LYTE assay.
(§6) The Development Reagent is diluted in Development Buffer (see section Kinase-Specific Assay Conditions—Direct and Cascade for a complete description).
(§7) Bar-coded Corning, low volume NBS, black 384-well plate (Corning Cat. #4514) • 1. 100 nL—100× Test Compound in 100% DMSO • 2. 2.4 μL—Kinase buffer • 3. 5 μL—2× Peptide/Kinase Mixture • 4. 2.5 μL—4×ATP Solution • 5. 30—second plate shake • 6. 60—minute Kinase Reaction incubation at room temperature • 7. 5 μL—Development Reagent Solution • 8. 30—second plate shake • 9. 60—minute Development Reaction incubation at room temperature • 10. Read on fluorescence plate reader and analyze the data Z′-LYTE Assay Controls
(§8) SelectScreen Kinase Profiling Service uses XLfit from IDBS. The dose response curve is curve fit to model number 205 (sigmoidal dose-response model).
The 2×CSF1R (FMS)/Tyr 01 mixture is prepared in 50 mM HEPES pH 7.5, 0.01% BRIJ-35, 10 mM MgCl2, 1 mM EGTA. The final 10 μL Kinase Reaction consists of 0.2-40 ng CSF1R (FMS) and 2 μM Tyr 01 in 50 mM HEPES pH 7.5, 0.01% BRIJ-35, 10 mM MgCl2, 1 mM EGTA. After the 1 hour Kinase Reaction incubation, 5 μL of a 1:256 dilution of Development Reagent B is added.

FGFR1 = FGFR1 (Homo sapiens, UniProt P11362); assay: Z'-LYTE SelectScreen biochemical kinase assay FGFR1
FGFR1, sequence (P11362 22-822): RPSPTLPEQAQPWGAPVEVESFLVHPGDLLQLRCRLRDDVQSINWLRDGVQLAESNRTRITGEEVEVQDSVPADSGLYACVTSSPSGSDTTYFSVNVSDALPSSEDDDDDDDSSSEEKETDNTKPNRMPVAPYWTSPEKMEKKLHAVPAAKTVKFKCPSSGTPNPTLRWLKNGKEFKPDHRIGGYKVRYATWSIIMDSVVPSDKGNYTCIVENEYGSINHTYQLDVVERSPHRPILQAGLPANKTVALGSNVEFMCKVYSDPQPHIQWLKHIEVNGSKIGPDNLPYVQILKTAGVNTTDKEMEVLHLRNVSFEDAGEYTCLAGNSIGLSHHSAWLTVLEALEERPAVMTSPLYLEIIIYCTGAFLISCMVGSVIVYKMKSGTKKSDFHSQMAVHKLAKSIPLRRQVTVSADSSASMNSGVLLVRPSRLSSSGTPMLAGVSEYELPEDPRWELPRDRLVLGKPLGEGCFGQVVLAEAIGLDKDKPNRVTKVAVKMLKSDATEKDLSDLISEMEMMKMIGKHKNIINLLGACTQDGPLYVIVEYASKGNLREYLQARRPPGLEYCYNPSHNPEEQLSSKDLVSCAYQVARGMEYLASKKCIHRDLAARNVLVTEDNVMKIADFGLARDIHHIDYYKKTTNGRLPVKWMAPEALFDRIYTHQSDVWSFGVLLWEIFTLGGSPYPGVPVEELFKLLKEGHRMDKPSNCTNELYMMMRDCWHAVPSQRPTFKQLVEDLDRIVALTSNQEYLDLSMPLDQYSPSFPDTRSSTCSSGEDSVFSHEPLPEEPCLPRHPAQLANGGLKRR
From the text: as §1, §2, §3, §4, §5, §6, §7, §8
(§9) The 2×FGFR1/Tyr 04 mixture is prepared in 50 mM HEPES pH 7.5, 0.01% BRIJ-35, 10 mM MgCl2, 4 mM MnCl2, 1 mM EGTA, 2 mM DTT. The final 10 μL Kinase Reaction consists of 0.44-2.45 ng FGFR1 and 2 μM Tyr 04 in 50 mM HEPES pH 7.5, 0.01% BRIJ-35, 10 mM MgCl2, 2 mM MnCl2, 1 mM EGTA, 1 mM DTT. After the 1 hour Kinase Reaction incubation, 5 μL of a 1:64 dilution of Development Reagent B is added.

FLT4 (VEGFR3) = FLT4 (VEGFR3) (Homo sapiens, UniProt P35916); assay: Z'-LYTE SelectScreen biochemical kinase assay FLT4 (VEGFR3)
FLT4 (VEGFR3), sequence (P35916 25-1363): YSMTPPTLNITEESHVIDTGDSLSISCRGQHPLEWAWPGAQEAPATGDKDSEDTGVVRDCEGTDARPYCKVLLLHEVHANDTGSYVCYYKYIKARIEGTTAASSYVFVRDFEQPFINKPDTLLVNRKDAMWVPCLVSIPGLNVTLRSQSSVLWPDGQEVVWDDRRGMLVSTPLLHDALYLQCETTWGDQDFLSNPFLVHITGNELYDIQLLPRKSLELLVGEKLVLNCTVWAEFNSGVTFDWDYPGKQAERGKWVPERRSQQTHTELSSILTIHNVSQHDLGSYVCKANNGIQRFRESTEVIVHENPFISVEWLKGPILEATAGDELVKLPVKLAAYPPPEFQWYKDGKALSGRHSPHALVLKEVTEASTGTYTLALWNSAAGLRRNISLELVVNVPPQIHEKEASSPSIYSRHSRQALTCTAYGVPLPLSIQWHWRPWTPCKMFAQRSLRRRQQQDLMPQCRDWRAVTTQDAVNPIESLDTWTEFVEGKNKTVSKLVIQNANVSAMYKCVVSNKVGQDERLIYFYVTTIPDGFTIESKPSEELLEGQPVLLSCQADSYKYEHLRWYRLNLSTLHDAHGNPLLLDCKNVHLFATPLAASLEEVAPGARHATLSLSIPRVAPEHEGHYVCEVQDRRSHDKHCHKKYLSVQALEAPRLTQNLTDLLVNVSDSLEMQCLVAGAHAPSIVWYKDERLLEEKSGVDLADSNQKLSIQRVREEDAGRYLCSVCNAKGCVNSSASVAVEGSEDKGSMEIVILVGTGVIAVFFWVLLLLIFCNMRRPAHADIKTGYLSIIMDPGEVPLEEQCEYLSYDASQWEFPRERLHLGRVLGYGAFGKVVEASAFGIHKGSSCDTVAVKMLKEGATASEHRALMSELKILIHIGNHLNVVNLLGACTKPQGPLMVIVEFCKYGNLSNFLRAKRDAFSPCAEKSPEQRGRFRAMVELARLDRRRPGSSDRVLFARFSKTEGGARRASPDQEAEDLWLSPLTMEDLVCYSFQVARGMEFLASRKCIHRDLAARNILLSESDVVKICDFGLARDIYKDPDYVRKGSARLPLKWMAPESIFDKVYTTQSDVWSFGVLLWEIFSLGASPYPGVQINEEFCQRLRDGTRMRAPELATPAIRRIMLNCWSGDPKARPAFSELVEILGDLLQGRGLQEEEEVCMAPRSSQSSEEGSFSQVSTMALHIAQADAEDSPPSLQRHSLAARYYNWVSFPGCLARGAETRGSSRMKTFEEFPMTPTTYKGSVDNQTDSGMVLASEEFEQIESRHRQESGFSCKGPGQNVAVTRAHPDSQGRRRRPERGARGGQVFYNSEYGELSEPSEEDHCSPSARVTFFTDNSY
From the text: as §1, §2, §3, §4, §5, §6, §7, §8
as §9, with “2×FLT4 (VEGFR3)/Tyr” for “2×FGFR1/Tyr”, “2-10.5” for “0.44-2.45”, “FLT4 (VEGFR3)” for “FGFR1”

LYN B = LYN B (Homo sapiens, UniProt P07948); assay: Z'-LYTE SelectScreen biochemical kinase assay LYN B
LYN B, sequence (P07948 1-491 isoform P07948-2): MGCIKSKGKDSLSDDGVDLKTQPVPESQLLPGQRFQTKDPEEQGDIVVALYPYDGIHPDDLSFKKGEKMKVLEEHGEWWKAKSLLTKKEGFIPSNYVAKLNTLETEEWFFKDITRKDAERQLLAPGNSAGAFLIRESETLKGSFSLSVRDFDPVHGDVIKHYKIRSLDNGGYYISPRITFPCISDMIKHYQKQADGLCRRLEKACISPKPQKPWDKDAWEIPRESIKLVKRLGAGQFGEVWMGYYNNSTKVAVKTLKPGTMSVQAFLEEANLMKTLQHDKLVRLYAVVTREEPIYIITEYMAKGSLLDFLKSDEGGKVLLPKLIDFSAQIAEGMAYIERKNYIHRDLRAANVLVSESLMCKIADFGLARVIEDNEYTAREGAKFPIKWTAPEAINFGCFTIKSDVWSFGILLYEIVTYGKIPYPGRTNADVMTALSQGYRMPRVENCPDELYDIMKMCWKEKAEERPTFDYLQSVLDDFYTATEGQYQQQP
From the text: as §1, §2, §3, §4, §5, §6, §7, §8
The 2×LYN B/Tyr 02 mixture is prepared in 50 mM HEPES pH 7.5, 0.01% BRIJ-35, 10 mM MgCl2, 1 mM EGTA. The final 10 μL Kinase Reaction consists of 0.85-14.8 ng LYN B and 2 μM Tyr 02 in 50 mM HEPES pH 7.5, 0.01% BRIJ-35, 10 mM MgCl2, 1 mM EGTA. After the 1 hour Kinase Reaction incubation, 5 μL of a 1:128 dilution of Development Reagent A is added.

[1] = 10 μmolar compound concentration, ATP at Km app, read-out: CSF1R (FMS) inhibition
[2] = 10 μmolar compound concentration, ATP at Km app, read-out: FGFR1 inhibition
[3] = 10 μmolar compound concentration, ATP at Km app, read-out: FLT4 (VEGFR3) inhibition
[4] = 10 μmolar compound concentration, ATP at Km app, read-out: LYN B inhibition
[5] = read-out: % Inhibition mean CSF1R (FMS)
[6] = read-out: % Inhibition mean FGFR1
[7] = read-out: % Inhibition mean FLT4 (VEGFR3)
[8] = read-out: % Inhibition mean LYN B

CSF1R (FMS), sequence (P07333 20-972): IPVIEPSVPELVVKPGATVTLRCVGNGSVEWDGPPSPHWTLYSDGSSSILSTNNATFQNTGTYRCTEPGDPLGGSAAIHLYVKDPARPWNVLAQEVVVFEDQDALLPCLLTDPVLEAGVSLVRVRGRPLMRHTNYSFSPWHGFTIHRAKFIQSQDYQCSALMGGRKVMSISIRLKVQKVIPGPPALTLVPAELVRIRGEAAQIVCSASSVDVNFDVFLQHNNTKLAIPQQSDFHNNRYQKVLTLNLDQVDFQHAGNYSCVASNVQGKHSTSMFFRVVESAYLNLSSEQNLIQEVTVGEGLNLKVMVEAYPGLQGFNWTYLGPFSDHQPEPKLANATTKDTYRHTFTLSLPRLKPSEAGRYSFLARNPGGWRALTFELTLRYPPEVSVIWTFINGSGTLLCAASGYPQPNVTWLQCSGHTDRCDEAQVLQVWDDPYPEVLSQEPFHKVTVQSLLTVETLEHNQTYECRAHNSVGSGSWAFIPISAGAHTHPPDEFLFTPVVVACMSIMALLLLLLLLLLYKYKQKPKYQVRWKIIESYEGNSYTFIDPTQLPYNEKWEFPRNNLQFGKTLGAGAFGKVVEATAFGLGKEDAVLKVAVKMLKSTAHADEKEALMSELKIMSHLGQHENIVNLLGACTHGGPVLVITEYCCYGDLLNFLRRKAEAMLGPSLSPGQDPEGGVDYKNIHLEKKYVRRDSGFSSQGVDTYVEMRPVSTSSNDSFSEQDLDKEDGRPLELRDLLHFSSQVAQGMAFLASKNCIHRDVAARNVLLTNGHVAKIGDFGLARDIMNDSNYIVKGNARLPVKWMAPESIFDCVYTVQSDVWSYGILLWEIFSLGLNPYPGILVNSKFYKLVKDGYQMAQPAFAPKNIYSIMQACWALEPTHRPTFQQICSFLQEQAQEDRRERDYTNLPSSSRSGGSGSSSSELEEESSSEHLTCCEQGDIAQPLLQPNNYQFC

Structure (SMILES)	inhibition at 10 µM (CSF1R (FMS); [1]) [%]	inhibition at 10 µM (CSF1R (FMS); read-out: % Inhibition mean) [%]	inhibition at 10 µM (FGFR1; [2]) [%]	inhibition at 10 µM (FGFR1; read-out: % Inhibition mean) [%]	inhibition at 10 µM (FLT4 (VEGFR3); [3]) [%]	inhibition at 10 µM (FLT4 (VEGFR3); read-out: % Inhibition mean) [%]	inhibition at 10 µM (LYN B; [4]) [%]	inhibition at 10 µM (LYN B; read-out: % Inhibition mean) [%]	inhibition at 10 µM (CSF1R (FMS); [5]) [%]	inhibition at 10 µM (FGFR1; [6]) [%]	inhibition at 10 µM (FLT4 (VEGFR3); [7]) [%]	inhibition at 10 µM (LYN B; [8]) [%]
Fc1cccc(-c2cccn3nc(Nc4ccc5[nH]cnc5c4)nc23)c1 [Cpd. 293 in WO09155551, reference compound]	> 80	90	> 80	93	> 80	94	> 80	89				
CCn1ncc2c1CCC(Nc1nc3c(-c4cncc(Cl)c4)cccn3n1)C2 (stereo not shown) [Example 73, [8-(5-Chloro-pyridin-3-yl)-[1,2,4]triazolo[1,5-a]pyridine-2-yl]-(1-ethyl-4,5,6,7-tetrahydro-1H-indazol-5-yl)-amine]	40 to 80		< 40		40 to 80		< 40		79	32	50	31
CCn1ncc2c1CCC(Nc1nc3c(-c4cccnc4)cccn3n1)C2 (stereo not shown) [Example 63, (1-Ethyl-4,5,6,7-tetrahydro-1H-indazol-5-yl)-(8-pyridin-3-yl-[1,2,4]triazolo[1,5-a]pyridine-2-yl)-amine]	40 to 80		< 40		< 40		< 40		48	18	32	13
CCn1ncc2c1CC[C@H](Nc1nc3c(-c4ccc(F)c(Cl)c4)cccn3n1)C2 [Example S-61, (S)-[8-(3-Chloro-4-fluoro-phenyl)-[1,2,4]triazolo[1,5-a]pyridine-2-yl]-(1-ethyl-4,5,6,7-tetrahydro-1H-indazol-5-yl)-amine]	< 40		< 40		< 40		< 40		18	13	24	8
CCn1ncc2c1CCC(Nc1nc3c(-c4ccc(F)cc4C)cccn3n1)C2 (stereo not shown) [Example 42, (1-Ethyl-4,5,6,7-tetrahydro-1H-indazol-5-yl)-[8-(4-fluoro-2-methyl-phenyl)-[1,2,4]triazolo[1,5-a]pyridine-2-yl]-amine]	< 40		< 40		< 40		< 40		34	16	31	19
CC1(C)C(=O)Nc2ccc(Nc3nc4c(-c5cccc(F)c5)cccn4n3)cc21 [Cpd. 263 in WO09155551, reference compound]	> 80	93	> 80	99	> 80	103	> 80	98				
CCn1ncc2c1CC[C@@H](Nc1nc3c(-c4ccc(F)cc4C)cccn3n1)C2 [Example R-42, (R)-(1-Ethyl-4,5,6,7-tetrahydro-1H-indazol-5-yl)-[8-(4-fluoro-2-methyl-phenyl)-[1,2,4]triazolo[1,5-a]pyridine-2-yl]-amine]	< 40		< 40		< 40		< 40		31	16	36	26
CCn1ncc2c1CCC(Nc1nc3c(-c4cccnc4OC)cccn3n1)C2 (stereo not shown) [Example 69, (1-Ethyl-4,5,6,7-tetrahydro-1H-indazol-5-yl)-[8-(2-methoxy-pyridin-3-yl)-[1,2,4]triazolo[1,5-a]pyridine-2-yl]-amine]	< 40		< 40		< 40		< 40		8	20	16	15
